This is an account of results in ChEMBL document CHEMBL1146284, “Antitumor activity of the marine natural product dibromophakellstatin in vitro” (Bioorg Med Chem Lett, 2007).

What all share (format): functional, cell-based
Test [1] can be described thus: Antiproliferative activity against human MEXF 394NL cells.
The nature of test [2]: Antiproliferative activity against human OVXF 899L cells.
Another test has as its system SF-268. In words: Antiproliferative activity against human SF268 cells.
Test [3] in a line: Antiproliferative activity against human CNXF 498NL cells.
The nature of test [4]: Antiproliferative activity against human LXF 529L cells.
Test [5] in a line: Antiproliferative activity against human LXF 629L cells.
The test system of the next test is NCI-H460. Nature of the test: Antiproliferative activity against human H460 cells.
Test [6] is described as follows: Antiproliferative activity against human MAXF 401NL cells.
Another test concerns MCF7. In words: Antiproliferative activity against human MCF7 cells.
Test [7] can be described thus: Antiproliferative activity against human MEXF 276L cells. As to conditions: MEXF276L.
Test [8] in a line: Antiproliferative activity against human MEXF 462NL cells.
A short description of test [9]: Antiproliferative activity against human MEXF 514NL cells.
Test [10] can be described thus: Antiproliferative activity against human MEXF 520L cells.
Test [11] can be described thus: Antiproliferative activity against human OVXF 1619L cells.
Test [12] is described as follows: Antiproliferative activity against human BXF 1218L cells.
The test system of a further test is T-24. In words: Antiproliferative activity against human T24 cells.
In a further test the test system is HCT-116. In words: Antiproliferative activity against human HCT116 cells.
The next test has as its system HT-29. Nature of the test: Antiproliferative activity against human HT29 cells.
Test [13] is described as follows: Antiproliferative activity against human GXF 251L cells.
The nature of test [14]: Antiproliferative activity against human HNXF 536L cells.
Test [15] is described as follows: Antiproliferative activity against human LXF 1121L cells.
A short description of test [16]: Antiproliferative activity against human LXF 289L cells.
The nature of test [17]: Antiproliferative activity against human LXF 526L cells.
The next test concerns OVCAR-3. Nature of the test: Antiproliferative activity against human OVCAR-3 cells.
Test [18] in a line: Antiproliferative activity against human PAXF 1675L cells.
In a further test the test system is PANC-1. Nature of the test: Antiproliferative activity against human PANC1 cells.
The test system of another test is CWR22R. Nature of the test: Antiproliferative activity against human 22RV1 cells.
The subject of a further test is DU-145. In words: Antiproliferative activity against human DU145 cells.
Another test relates to LNCaP. In words: Antiproliferative activity against human LNCAP cells.
A short description of test [19]: Antiproliferative activity against human PC3M cells. As to conditions: PC-3M.
The nature of test [20]: Antiproliferative activity against human PXF 1752L cells.
The nature of test [21]: Antiproliferative activity against human RXF 1781L cells.
Test [22] is described as follows: Antiproliferative activity against human RXF 393NL cells.
A short description of test [23]: Antiproliferative activity against human RXF 486NL cells […]. For orientation: Xenograft models place foreign cells or tissue in a host animal.
Test [24] in a line: Antiproliferative activity against human RXF 944NL cells.
The nature of test [25]: Antiproliferative activity against human UXF 1138L cells.

Usually IC50 stands for the concentration that inhibits the measured activity by half. Read a low IC50 as greater potency. As to `CN1C(=O)c2cc(Br)c(Br)n2C2C1C2(Cl)Cl` (racemic), the IC50 is 1.35 µM in [1] (Homo sapiens, MEXF 394NL); above 10 µM in test [2] (Homo sapiens, OVXF 899L); above 10 µM with SF-268 (Homo sapiens, SF-268); above 10 µM in test [3] (Homo sapiens, CNXF 498NL); above 10 µM in test [4] (Homo sapiens, LXF 529L).
For `O=C1N[C@H]2n3c(cc(Br)c3Br)C(=O)N3CCC[C@]23N1` [DIBROMOPHAKELLSTATIN], the IC50 in [1] (mexf 394nl) was found to be 1.35 µM; in test [2] (ovxf 899l), 0.05 µM; in the test on SF-268 (sf-268), 0.55 µM; in test [3] (cnxf 498nl), 0.72 µM; in test [4] (lxf 529l) it was 1.62 µM.
As to `O=C1c2cc(Br)c(Br)n2C2C(Cl)(Cl)C23CCCN13` (racemic), the IC50 in [1] (Homo sapiens, MEXF 394NL) came to 7.87 µM; in test [2] (Homo sapiens, OVXF 899L) it was 5.37 µM; in the test with SF-268 (Homo sapiens, SF-268) it was 3.91 µM; in test [3] (Homo sapiens, CNXF 498NL) it was 5.84 µM; in [4] (Homo sapiens, LXF 529L), 9.84 µM.
As to `O=C1N[C@H]2n3c(cc(Br)c3Br)C(=O)N3CCC[C@]23N1`, the IC50 (in [1] (mexf 394nl); in [2] (ovxf 899l); with SF-268 (sf-268); in test [3] (cnxf 498nl); in [4] (lxf 529l)) was above 10 µM in each case.
In the case of `O=C1NC2n3c(cc(Br)c3Br)C(=O)N3CCCC23N1` (racemic), the IC50 in test [5] is above 10 µM; in the test with NCI-H460, above 10 µM; in test [6], above 10 µM; with MCF7, above 10 µM; in [7], above 10 µM; in test [1] (Homo sapiens, MEXF 394NL) it was 1.37 µM. Besides, the IC50 in test [8] is above 10 µM; in test [9], 4.41 µM; in test [10] it was above 10 µM; in [11] it was 2.23 µM; in test [2] (Homo sapiens, OVXF 899L) it was 0.6 µM; in test [12], above 10 µM. Besides, the IC50 in the test with T-24 is above 10 µM; in the test with SF-268 (Homo sapiens, SF-268), 2.28 µM; with HCT-116 it was above 10 µM; in the test on HT-29, above 10 µM; in test [13] it was above 10 µM; in test [3] (Homo sapiens, CNXF 498NL) it was 0.93 µM. Further, the IC50 is above 10 µM in test [14]; above 10 µM in test [15]; above 10 µM in [16]; above 10 µM in test [17]; 0.96 µM in test [4] (Homo sapiens, LXF 529L); above 10 µM in the test with OVCAR-3. In addition, the IC50 was above 10 µM in test [18]; 4.06 µM in the test on PANC-1; above 10 µM with CWR22R; above 10 µM in the test with DU-145; above 10 µM in the test on LNCaP; 2.42 µM in test [19]. The IC50 in test [20] is above 10 µM; in test [21], above 10 µM; in [22], above 10 µM; in [23], above 10 µM; in test [24], above 10 µM; in [25], 1.21 µM.
With `CCOC(=O)N1C(=O)N(OS(=O)(=O)c2ccc(C)cc2)C23CCCN2C(=O)c2cc(Br)c(Br)n2C13` (racemic), the IC50 in [5] is 6.52 µM; with NCI-H460, above 10 µM; in [6], 8.16 µM; in the test with MCF7, above 10 µM; in test [7] it was 9.44 µM; in [1] (Homo sapiens, MEXF 394NL), 4.02 µM. Also, the IC50 in [8] is above 10 µM; in [9] it was above 10 µM; in [10], above 10 µM; in test [11] it was 4.83 µM; in test [2] (Homo sapiens, OVXF 899L), 8.89 µM; in test [12], 7.42 µM. The IC50 in the test on T-24 is 9.98 µM; in the test on SF-268 (Homo sapiens, SF-268) it was 6.45 µM; in the test with HCT-116, above 10 µM; with HT-29, above 10 µM; in test [13] it was above 10 µM; in [3] (Homo sapiens, CNXF 498NL) it was above 10 µM. Besides, the IC50 in test [14] is 7.24 µM; in test [15] it was above 10 µM; in test [16], above 10 µM; in test [17] it was 7.96 µM; in test [4] (Homo sapiens, LXF 529L) it was above 10 µM; in the test on OVCAR-3, above 10 µM. In addition, the IC50 is above 10 µM in test [18]; 5 µM with PANC-1; above 5.92 µM with CWR22R; above 10 µM in the test with DU-145; above 10 µM in the test with LNCaP; 8.6 µM in test [19]. Besides, the IC50 was above 10 µM in test [20]; above 10 µM in test [21]; above 10 µM in [22]; above 10 µM in test [23]; 6.3 µM in [24]; 8.96 µM in test [25].
